Measurements reported in patent US12240827B2, “Serotonin 5-HT2B inhibitory compounds” (Zoetis Services LLC, priority 2019, dated 2025).
pIC50: −log10 of the molar value.

What was measured:
c5-HT2B = details: literature value; cited from earlier work
canine 5-HT2B receptor = target: T1, canine 5-HT2B receptor (Canis lupus familiaris, UniProt Q50DZ8); experiment: Canine 5-HT2B (c5-HT2B) in-vitro assay, FLIPR calcium response; format: cell-based; details: CHO-K1 cells stably expressing canine 5-HT2B receptor; inhibition of EC80 serotonin calcium response
T1 construct: expressed in transfected cells; host or cells: CHO-K1
T1 sequence (Q50DZ8 1-434): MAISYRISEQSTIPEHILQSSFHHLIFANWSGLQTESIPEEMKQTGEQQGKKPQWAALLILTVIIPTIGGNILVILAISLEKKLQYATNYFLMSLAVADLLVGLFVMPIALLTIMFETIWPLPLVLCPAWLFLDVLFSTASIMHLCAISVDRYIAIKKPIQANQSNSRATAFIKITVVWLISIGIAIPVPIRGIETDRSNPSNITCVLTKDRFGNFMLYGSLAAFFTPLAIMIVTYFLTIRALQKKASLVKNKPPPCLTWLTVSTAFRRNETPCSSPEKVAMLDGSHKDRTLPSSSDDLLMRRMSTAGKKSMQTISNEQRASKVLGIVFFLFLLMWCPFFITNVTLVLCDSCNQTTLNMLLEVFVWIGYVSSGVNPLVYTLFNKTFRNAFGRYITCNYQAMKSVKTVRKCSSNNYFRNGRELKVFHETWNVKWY
Procedure: CHO-K1 cells stably expressing the canine 5-HT2B receptor were seeded at 20,000 cells per well in 20 μl culture media (DMEM with GlutaMAX™ high glucose+5% dialyzed FBS+10 mM HEPES+1×MEM Non-Essential Amino Acids of a 384-well black plate with clear bottom for at least 18 hours at 37° C. and 5% CO2. The cell plate was loaded with 20 μl/well of the FLIPR® Calcium 5 Assay kit prepared in HBSS containing calcium and magnesium supplemented with 20 mM HEPES and 5 mM Probenecid at pH 7.4 and incubated at 37° C. and 5% CO2 for 30 minutes and then an additional 30 minutes at room temperature. The intracellular calcium response was measured using the FLIPR Tetra® instrument measuring the kinetic response of the Calcium 5 dye at an excitation wavelength of 470-495 nm and emission wavelength of 515-575 nm at room temperature. The cells were initially challenged with a 5× concentration of the antagonist (10 μl/well) after an initial baseline recording and the calcium response was recorded for almost 2 minutes. After the completion of the initial antagonist challenge, the cell plate was incubated at room temperature in the FLIPR Tetra® instrument for 10 minutes. Finally, a second kinetic assay was performed after the 10 minute incubation at room temperature to measure the inhibitory response of the EC80 concentration of serotonin (15 μl/well) after an initial baseline recording. The IC50 concentration was determined for each antagonist tested.

hERG = target: T2, hERG (Homo sapiens, UniProt Q12809); experiment: hERG in-vitro assay, IonWorks Barracuda population patch clamp; format: cell-based; details: hERG/HEK293 cells; hERG current block, 5 minutes exposure
T2 construct: stably transfected with full length hERG cDNA; expressed in transfected cells; host or cells: HEK293
T2 sequence (Q12809 whole entry): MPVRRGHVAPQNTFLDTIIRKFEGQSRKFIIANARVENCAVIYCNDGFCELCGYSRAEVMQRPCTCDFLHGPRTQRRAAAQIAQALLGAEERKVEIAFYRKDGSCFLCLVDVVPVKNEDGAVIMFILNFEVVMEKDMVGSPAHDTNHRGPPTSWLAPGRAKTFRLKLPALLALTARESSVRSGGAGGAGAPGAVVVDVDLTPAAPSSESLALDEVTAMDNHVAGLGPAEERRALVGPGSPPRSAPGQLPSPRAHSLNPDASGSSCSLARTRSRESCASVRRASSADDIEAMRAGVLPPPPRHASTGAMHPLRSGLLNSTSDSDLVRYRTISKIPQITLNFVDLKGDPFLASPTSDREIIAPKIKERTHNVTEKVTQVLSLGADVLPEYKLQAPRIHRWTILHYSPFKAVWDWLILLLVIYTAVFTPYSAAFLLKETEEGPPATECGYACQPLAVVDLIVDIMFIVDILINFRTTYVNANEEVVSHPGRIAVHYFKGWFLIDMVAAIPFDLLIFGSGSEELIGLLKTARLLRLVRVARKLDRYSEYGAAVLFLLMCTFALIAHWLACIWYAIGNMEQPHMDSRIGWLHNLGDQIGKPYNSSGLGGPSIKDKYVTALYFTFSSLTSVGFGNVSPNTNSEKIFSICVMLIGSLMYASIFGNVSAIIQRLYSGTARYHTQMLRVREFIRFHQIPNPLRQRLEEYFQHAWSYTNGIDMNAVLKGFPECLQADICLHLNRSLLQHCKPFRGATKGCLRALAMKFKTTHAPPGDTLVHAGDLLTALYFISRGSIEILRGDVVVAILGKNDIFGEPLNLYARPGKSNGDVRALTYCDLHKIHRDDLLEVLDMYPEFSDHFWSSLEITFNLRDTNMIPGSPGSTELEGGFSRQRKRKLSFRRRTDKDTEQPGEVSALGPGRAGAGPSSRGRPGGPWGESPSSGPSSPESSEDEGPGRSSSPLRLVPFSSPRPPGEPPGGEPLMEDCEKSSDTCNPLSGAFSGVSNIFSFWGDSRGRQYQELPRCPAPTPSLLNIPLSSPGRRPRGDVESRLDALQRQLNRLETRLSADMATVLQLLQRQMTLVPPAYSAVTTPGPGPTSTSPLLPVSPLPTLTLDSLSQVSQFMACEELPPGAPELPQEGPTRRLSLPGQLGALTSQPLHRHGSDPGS
Procedure: Stock solutions of compounds of the invention and positive control (cisapride; 0.001-3 μM) were prepared in DMSO. Stock solutions were diluted in a HEPES-buffered physiological saline solution. Test and control solutions contained 0.3% DMSO. Human hERG/HEK293 renal epithelial cells stably transfected with full length hERG cDNA were cultured in Dulbecco's Modified Eagle Medium/Nutrient Mixture F-12 (D-MEM/F-12) supplemented with 10% fetal bovine serum, 100 U/mL penicillin G sodium, 100 μg/mL streptomycin sulfate and 500 μg/mL G418. Before testing, cells in culture dishes were rinsed with Hank's Balanced Salt Solution (HBSS) and detached with accutase. Immediately before use in the IonWorks Barracuda™ system, the cells were washed with buffered physiological saline solution (HB-PS) buffer to remove the accutase and re-suspended in 5 mL of HB-PS. The test article effects were evaluated using IonWorks Barracuda™ systems (Molecular Devices Corporation, Union City, CA). HEPES-buffered intracellular solution for whole cell recordings was loaded into the intracellular compartment of the Population Patch Clamp™ (PPC) planar electrode.
Extracellular buffer (HB-PS) was loaded into PPC planar electrode plate wells (11 μL/well). The cell suspension was pipetted into the wells of the PPC planar electrode (9 μL/well). After establishment of a whole-cell configuration (the perforated patch), membrane currents were recorded using patch clamp amplifier in the IonWorks Barracuda™ system. The current recordings were performed one (1) time before test article application to the cells (baseline) and one (1) time after application of the test article. Test article concentrations were applied to naïve cells. Each application consisted of addition of 20 μL of 2× concentrated test article solution to the total 40 μL of final volume of the extracellular well of the PPC plate. Duration of exposure to each compound concentration was five (5) minutes. hERG current was elicited using a pulse pattern with fixed amplitudes (the first conditioning pre-pulse to 10 mV for 60 second, the second conditioning pre-pulse: −90 mV for 20 ms; the test pulse: +40 mV for 100 ms) from a holding potential of 0 mV (‘zero holding’ procedure). hERG current was measured as a difference between the peak current at 1 ms and at the end of test step to +40 mV. Data acquisition and analyses were performed using the IonWorks Barracuda™ system operation software (version 2.0.2). The decrease in current amplitude after test article application was used to calculate the percent block relative to control. Results for each test article concentration (n≥1) were averaged; the mean and standard deviation values were calculated and used to generate dose-response curves.

dogs with Stage B2 MMVD = details: cited from earlier work

Structure (SMILES) | pIC50 (canine 5-HT2B receptor) | pIC50 (c5-HT2B) | pIC50 (hERG) | time longer to develop CHF or die from MMVD than dogs receiving placebo (dogs with Stage B2 MMVD; pimobendan 0.2 or 0.3 mg/kg twice a day) [days] | delay in prolonging preclinical stage (dogs with Stage B2 MMVD; versus placebo) [%]
O=C(c1ccc(-c2ccc(OC(F)(F)F)cc2)cc1)N1CCC(c2nc3ccccc3[nH]2)CC1 [CA-2, (4-(1H-benzo[d]imidazol-2-yl)piperidin-1-yl)(4′-(trifluoromethoxy)-[1,1′-biphenyl]-4-yl)methanone] | – | 7.02 | – | – | –
Cc1c[nH]c(C2CCN(C(=O)c3ccc(-c4c(C)[nH]c5ccccc45)cc3)CC2)n1 [Example 26, (4-(4-methyl-1H-imidazol-2-yl)piperidin-1-yl)(4-(2-methyl-1H-indol-3-yl)phenyl)methanone] | 9.08 | – | 4.88 | – | –
O=C(c1ccc2c(-c3cccc4[nH]ccc34)c[nH]c2c1)N1CCC(c2ncc[nH]2)CC1 [Example 28, (4-(1H-imidazol-2-yl)piperidin-1-yl)(1H,1′H-[3,4′-biindol]-6-yl)methanone] | 8.92 | – | < 4.52 | – | –
O=C(c1ccc(-c2cc3ccccc3[nH]2)cc1)N1CCC(c2ncc[nH]2)CC1 [Example 30, (4-(1H-imidazol-2-yl)piperidin-1-yl)(4-(1H-indol-2-yl)phenyl)methanone] | 8.71 | – | 4.96 | – | –
O=C(c1ccc(-c2ccc(C(F)F)cc2)cc1)N1CCC(Nc2ncc[nH]2)CC1 [Example 33, (4-((1H-imidazol-2-yl)amino)piperidin-1-yl)(4′-(difluoromethyl)-[1,1′-biphenyl]-4-yl)methanone] | 7.73 | – | 5.28 | – | –
Cc1c[nH]c(C2CCN(C(=O)c3ccc(-c4c[nH]c5ccc(F)cc45)cc3)CC2)n1 [Example 34, (4-(5-fluoro-1H-indol-3-yl)phenyl)(4-(4-methyl-1H-imidazol-2-yl)piperidin-1-yl)methanone] | 7.68 | – | 4.86 | – | –
COc1ccc(-c2nc3ccc(C4=NNC(=O)CC4C)cc3[nH]2)cc1 (centres unmarked) [pimobendan] | – | – | – | 462 | 60

Further lines, with some results ahead:

pIC50 (canine 5-HT2B receptor) | Structure (SMILES) | pIC50 (c5-HT2B) | pIC50 (hERG) | time longer to develop CHF or die from MMVD than dogs receiving placebo (dogs with Stage B2 MMVD; pimobendan 0.2 or 0.3 mg/kg twice a day) [days] | delay in prolonging preclinical stage (dogs with Stage B2 MMVD; versus placebo) [%]
7.69 | O=C(c1ccc(-c2ccc(C(F)(F)F)s2)cc1)N1CCC(c2ncc[nH]2)CC1 [Example 22, (4-(1H-imidazol-2-yl)piperidin-1-yl)(4-(5-(trifluoromethyl)thiophen-2-yl)phenyl)methanone] | – | 5.55 | – | –
10.70 | O=C(c1ccc(-c2c[nH]c3ccccc23)cc1)N1CCC(c2ncc[nH]2)CC1 [Example 23, (4-(1H-imidazol-2-yl)piperidin-1-yl)(4-(1H-indol-3-yl)phenyl)methanone] | – | 4.61 | – | –
9.48 | O=C(c1ccc(-c2n[nH]c3ccccc23)cc1)N1CCC(c2ncc[nH]2)CC1 [Example 24, (4-(1H-imidazol-2-yl)piperidin-1-yl)(4-(1H-indazol-3-yl)phenyl)methanone] | – | 4.47 | – | –
9.34 | O=C(c1ccc(-c2ccc(C(F)F)cc2)cc1)N1CCC(Cc2ncc[nH]2)CC1 [Example 25, (4-((1H-imidazol-2-yl)methyl)piperidin-1-yl)(4′-(difluoromethyl)-[1,1′-biphenyl]-4-yl)methanone] | – | 5.47 | – | –
8.96 | Cc1cnc(C2CCN(C(=O)c3ccc(-c4ccc5cc[nH]c5c4)cc3)CC2)[nH]1 [Example 27, (4-(1H-indol-6-yl)phenyl)(4-(5-methyl-1H-imidazol-2-yl)piperidin-1-yl)methanone] | – | 5.03 | – | –
8.85 | O=C(c1ccc2c(-c3c[nH]c4ccccc34)c[nH]c2c1)N1CCC(c2ncc[nH]2)CC1 [Example 29, [4-(1H-imidazol-2-yl)-1-piperidyl]-[3-(1H-indol-3-yl)-1H-indol-6-yl]methanone] | – | 4.57 | – | –
8.35 | Cc1cnc(C2CCN(C(=O)c3ccc4c(-c5ccccc5)c[nH]c4c3)CC2)[nH]1 [Example 31, (4-(5-methyl-1H-imidazol-2-yl)piperidin-1-yl)(3-phenyl-1H-indol-6-yl)methanone] | – | 4.71 | – | –
8.14 | O=C(c1ccc2c(-c3ccccc3)c[nH]c2c1)N1CCC(c2ncc[nH]2)CC1 [Example 32, (4-(1H-imidazol-2-yl)piperidin-1-yl)(3-phenyl-1H-indol-6-yl)methanone] | – | 4.82 | – | –
